In ChEMBL document CHEMBL4622844, “Inhibition of bacterial growth and galactosyltransferase activity of WbwC by α, ω-bis(3-alkyl-1H-imidazolium)alkane salts: Effect of varying carbon content” (Bioorg Med Chem, 2020):
pIC50: −log10 of the molar value. Active and inactive are the calls of the source. The rule behind the calls is not given here.

Key:
Escherichia coli [1] = assay: Inhibition of recombinant Escherichia coli O104:H4 Beta-1,3-galactosyltransferase WbwC expressed in Escherichia coli BL21 at 0.5 mM in presence of UDP-[3H]Gal and GalNAC-PO3-PO3-(CH2)11-O-phenyl after 1 hr by scintillation counting method relative to control
[2] = Growth inhibition of human OC-3-VGH cells at 0.5 mM after 24 hrs by MTT assay; type: cell-based; conditions: read-out: GI
OC-3-VGH [3] = assay: Growth inhibition of human OC-3-VGH cells after 24 hrs by MTT assay; type: cell-based
PC-3 [4] = assay: Growth inhibition of human PC3 cells at 0.5 mM after 24 hrs by MTT assay; type: cell-based; conditions: pc-3, 24 h, 500 µM
PC-3 [5] = assay: Growth inhibition of human PC3 cells after 24 hrs by MTT assay; type: cell-based; conditions: pc-3, 24 h
A549 [6] = assay: Growth inhibition of human A549 cells at 0.5 mM after 24 hrs by MTT assay; type: cell-based; conditions: a549, 24 h, 500 µM
A549 [7] = assay: Growth inhibition of human A549 cells after 24 hrs by MTT assay; type: cell-based; conditions: a549, 24 h
AD293 [8] = assay: Growth inhibition of human AD293 cells at 0.5 mM after 24 hrs by MTT assay; type: cell-based; conditions: ad293, 24 h, 500 µM
AD293 [9] = assay: Growth inhibition of human AD293 cells after 24 hrs by MTT assay; type: cell-based; conditions: ad293, 24 h
OC-3-VGH [10] = assay: Growth inhibition of human OC-3-VGH cells at 50 uM after 24 hrs by MTT assay; type: cell-based
A549 [11] = assay: Growth inhibition of human A549 cells at 50 uM after 24 hrs by MTT assay; type: cell-based; conditions: a549, 24 h
AD293 [12] = assay: Growth inhibition of human AD293 cells at 50 uM after 24 hrs by MTT assay; type: cell-based; conditions: ad293, 24 h
Pseudomonas aeruginosa [13] = assay: Antimicrobial activity against Pseudomonas aeruginosa PAO1 assessed as inhibition of colony formation at 50 uM preincubated for 4 hrs and measured after overnight incubation by CFU assay; type: functional
[14] = Inhibition of recombinant Escherichia coli O104:H4 Beta-1,3-galactosyltransferase WbwC expressed in Escherichia coli BL21 in presence of UDP-[3H]Gal and GalNAC-PO3-PO3-(CH2)11-O-phenyl after 1 hr by scintillation counting method
[15] = molecular target: T1, Beta-1,4-galactosyltransferase 1 (Bos taurus) (UniProt P08037); assay: Inhibition of bovine milk Beta-1,4-galactosyltransferase at 0.5 mM in presence of UDP-[3H]Gal and GlcNAc-beta-Bn after 1 hr by scintillation counting method
T1 sequence (whole entry): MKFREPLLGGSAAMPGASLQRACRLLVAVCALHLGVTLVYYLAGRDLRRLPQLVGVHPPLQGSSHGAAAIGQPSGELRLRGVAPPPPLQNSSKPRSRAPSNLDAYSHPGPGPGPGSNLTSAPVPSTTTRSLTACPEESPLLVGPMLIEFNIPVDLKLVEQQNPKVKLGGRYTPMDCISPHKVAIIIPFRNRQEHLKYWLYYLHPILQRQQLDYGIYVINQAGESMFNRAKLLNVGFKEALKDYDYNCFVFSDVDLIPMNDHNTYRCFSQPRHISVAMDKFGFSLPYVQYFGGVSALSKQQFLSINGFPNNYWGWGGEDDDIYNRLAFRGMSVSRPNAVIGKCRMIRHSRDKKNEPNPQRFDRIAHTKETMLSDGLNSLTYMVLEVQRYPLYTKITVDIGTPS

Escherichia coli [16] = assay: Antimicrobial activity against Escherichia coli BL21 assessed as inhibition of colony formation at 5 uM preincubated for 4 hrs and measured after overnight incubation by CFU assay; type: functional
Pseudomonas aeruginosa [17] = assay: Antimicrobial activity against Pseudomonas aeruginosa PAO1 assessed as inhibition of colony formation at 5 uM preincubated for 4 hrs and measured after overnight incubation by CFU assay; type: functional
Bacillus subtilis [18] = assay: Antimicrobial activity against Bacillus subtilis assessed as inhibition of colony formation at 5 uM preincubated for 4 hrs and measured after overnight incubation by CFU assay; type: functional
[19] = system: Staphylococcus epidermidis; assay: Antimicrobial activity against Staphylococcus epidermidis assessed as inhibition of colony formation at 5 uM preincubated for 4 hrs and measured after overnight incubation by CFU assay; type: functional
Escherichia coli [20] = assay: Antimicrobial activity against Escherichia coli BL21 assessed as inhibition of colony formation at 10 uM preincubated for 4 hrs and measured after overnight incubation by CFU assay; type: functional
Escherichia coli [21] = assay: Antimicrobial activity against Escherichia coli BL21 assessed as inhibition of colony formation at 25 uM preincubated for 4 hrs and measured after overnight incubation by CFU assay; type: functional
Pseudomonas aeruginosa [22] = assay: Antimicrobial activity against Pseudomonas aeruginosa PAO1 assessed as inhibition of colony formation at 10 uM preincubated for 4 hrs and measured after overnight incubation by CFU assay; type: functional
Pseudomonas aeruginosa [23] = assay: Antimicrobial activity against Pseudomonas aeruginosa PAO1 assessed as inhibition of colony formation at 25 uM preincubated for 4 hrs and measured after overnight incubation by CFU assay; type: functional
Bacillus subtilis [24] = assay: Antimicrobial activity against Bacillus subtilis assessed as inhibition of colony formation at 10 uM preincubated for 4 hrs and measured after overnight incubation by CFU assay; type: functional
Bacillus subtilis [25] = assay: Antimicrobial activity against Bacillus subtilis assessed as inhibition of colony formation at 25 uM preincubated for 4 hrs and measured after overnight incubation by CFU assay; type: functional
[26] = system: Staphylococcus epidermidis; assay: Antimicrobial activity against Staphylococcus epidermidis assessed as inhibition of colony formation at 10 uM preincubated for 4 hrs and measured after overnight incubation by CFU assay; type: functional
[27] = system: Staphylococcus epidermidis; assay: Antimicrobial activity against Staphylococcus epidermidis assessed as inhibition of colony formation at 25 uM preincubated for 4 hrs and measured after overnight incubation by CFU assay; type: functional

For CCCCCC[n+]1ccn(CCCCCCn2cc[n+](CCCCCC)c2)c1, the inhibition (Escherichia coli [1]) was 6%.
C[n+]1ccn(CCCCCCCCCCCCCCCCn2cc[n+](C)c2)c1 showed an inhibition (Escherichia coli [1]) of less than 1%.
C[n+]1ccn(CCCCCCCCCCCCCCCCCCn2cc[n+](C)c2)c1.[Cl-].[Cl-] gave an inhibition (Escherichia coli [1]) of less than 1%, an inhibition at 24 h, 500 µM [2] of 80% and a pIC50 (OC-3-VGH [3]) of 4.92 to 5.30. For the same molecule, the “growth inhibition (GI)” value (PC-3 [4]) was “Toxic”, the “growth inhibition (GI)” value (PC-3 [5]) was “Toxic” and the “growth inhibition (GI)” value (A549 [6]) was “Toxic”. The “growth inhibition (GI)” value (A549 [7]) was “Toxic”, the “growth inhibition (GI)” value (AD293 [8]) was “Toxic” and the “growth inhibition (GI)” value (AD293 [9]) was “Toxic”.
With c1cn(CCCCCCCCCCCCCCCCCCCCn2ccnc2)cn1 the “growth inhibition (GI)” value (OC-3-VGH [10]) was “Non-Toxic”, the “growth inhibition (GI)” value (A549 [11]) was “Non-Toxic” and the “growth inhibition (GI)” value (AD293 [12]) was “Non-Toxic”.
With C[n+]1ccn(CCCCn2cc[n+](C)c2)c1 the inhibition (Escherichia coli [1]) was 9% and the inhibition at 50 µM (Pseudomonas aeruginosa [13]) was 0%.
For CCCCCCCCCCCC[n+]1ccn(CCCCCCn2cc[n+](CCCCCCCCCCCC)c2)c1, the inhibition (Escherichia coli [1]) was 90%, the pIC50 [14] was 4.37 and the inhibition [15] was “Active”.
With CCCCCCCC[n+]1ccn(CCCCCCCCCCCCCCCCn2cc[n+](CCCCCCCC)c2)c1 the inhibition (Escherichia coli [1]) was 93% and the pIC50 [14] was 4.74.
With CCCCCCCCCC[n+]1ccn(CCCCCCn2cc[n+](CCCCCCCCCC)c2)c1 the inhibition (Escherichia coli [1]) was 92%, the pIC50 [14] was 3.58 and the inhibition [15] was “Active”.
In the case of CCCCCCC[n+]1ccn(CCCCCCCCCCn2cc[n+](CCCCCCC)c2)c1, the inhibition (Escherichia coli [1]) was less than 1%.
CCCCCC[n+]1ccn(CCCCCCCCCCn2cc[n+](CCCCCC)c2)c1 gave an inhibition (Escherichia coli [1]) of less than 1%.
CCCCCCCCCC[n+]1ccn(CCCCCCCCCCn2cc[n+](CCCCCCCCCC)c2)c1 showed an inhibition (Escherichia coli [1]) of 98% and a pIC50 [14] of 3.82.
CCCCCCC[n+]1ccn(CCCCCCn2cc[n+](CCCCCCC)c2)c1 gave an inhibition (Escherichia coli [1]) of 16%.
With CCCCCCCCCCCC[n+]1ccn(CCCCCCCCCCn2cc[n+](CCCCCCCCCCCC)c2)c1 the inhibition (Escherichia coli [1]) was 91%, the pIC50 [14] was 4.23 and the inhibition [15] was “Active”. It also gave an inhibition at 5 µM (Escherichia coli [16]) of 100%, an inhibition at 5 µM (Pseudomonas aeruginosa [17]) greater than 98% and an inhibition at 5 µM (Bacillus subtilis [18]) of 100%. For the same molecule, the inhibition at 5 µM [19] was 100%, the inhibition at 10 µM (Escherichia coli [20]) was 100% and the inhibition at 25 µM (Escherichia coli [21]) was 100%. The inhibition at 10 µM (Pseudomonas aeruginosa [22]) was 100%, the inhibition at 25 µM (Pseudomonas aeruginosa [23]) was less than 98% and the inhibition at 10 µM (Bacillus subtilis [24]) was 100%. It also gave an inhibition at 25 µM (Bacillus subtilis [25]) of 100%, an inhibition at 10 µM [26] of 100% and an inhibition at 25 µM [27] of 100%.
Molecule CCCCCCCCCCC[n+]1ccn(CCCCCCn2cc[n+](CCCCCCCCCCC)c2)c1 has an inhibition (Escherichia coli [1]) of 99% and a pIC50 [14] of 3.93.
Work on C[n+]1ccn(CCCCCCn2cc[n+](C)c2)c1 yielded an inhibition (Escherichia coli [1]) of 7% and an inhibition at 50 µM (Pseudomonas aeruginosa [13]) of 0%.
Work on C[n+]1ccn(CCCCCCCCCCCCCCCCCCCCCCn2cc[n+](C)c2)c1 yielded an inhibition (Escherichia coli [1]) of 91%, a pIC50 [14] of 3.80 and an inhibition at 25 µM (Pseudomonas aeruginosa [23]) greater than 95%. For the same molecule, the inhibition at 50 µM (Pseudomonas aeruginosa [13]) was 100%.
In the case of CCCCCCCCC[n+]1ccn(CCCCCCCCCCCCCCCCn2cc[n+](CCCCCCCCC)c2)c1, the inhibition (Escherichia coli [1]) was 93% and the pIC50 [14] was 4.46.
